Data from US6740670B2, “Thiazolidine derivatives and its use as antifungal agent” (Oxford Glycosciences (UK) Ltd., priority 2000, dated 2004).

Key:
[1] = molecular target: T1, Candida albicans PMT-1 enzyme (Candida albicans, UniProt O74189); test: PMT-1 assay; type: biochemical; conditions: Candida albicans membrane protein, peptide DYATAV, dolicholphospho-[3H]-mannose, 60 minutes at 25° C., pH 8.0; read-out: PMT-1 Inhibition (IC50)
T1 construct: 25 μg of Candida albicans membrane protein; endogenous in cells
T1 sequence (O74189 1-877): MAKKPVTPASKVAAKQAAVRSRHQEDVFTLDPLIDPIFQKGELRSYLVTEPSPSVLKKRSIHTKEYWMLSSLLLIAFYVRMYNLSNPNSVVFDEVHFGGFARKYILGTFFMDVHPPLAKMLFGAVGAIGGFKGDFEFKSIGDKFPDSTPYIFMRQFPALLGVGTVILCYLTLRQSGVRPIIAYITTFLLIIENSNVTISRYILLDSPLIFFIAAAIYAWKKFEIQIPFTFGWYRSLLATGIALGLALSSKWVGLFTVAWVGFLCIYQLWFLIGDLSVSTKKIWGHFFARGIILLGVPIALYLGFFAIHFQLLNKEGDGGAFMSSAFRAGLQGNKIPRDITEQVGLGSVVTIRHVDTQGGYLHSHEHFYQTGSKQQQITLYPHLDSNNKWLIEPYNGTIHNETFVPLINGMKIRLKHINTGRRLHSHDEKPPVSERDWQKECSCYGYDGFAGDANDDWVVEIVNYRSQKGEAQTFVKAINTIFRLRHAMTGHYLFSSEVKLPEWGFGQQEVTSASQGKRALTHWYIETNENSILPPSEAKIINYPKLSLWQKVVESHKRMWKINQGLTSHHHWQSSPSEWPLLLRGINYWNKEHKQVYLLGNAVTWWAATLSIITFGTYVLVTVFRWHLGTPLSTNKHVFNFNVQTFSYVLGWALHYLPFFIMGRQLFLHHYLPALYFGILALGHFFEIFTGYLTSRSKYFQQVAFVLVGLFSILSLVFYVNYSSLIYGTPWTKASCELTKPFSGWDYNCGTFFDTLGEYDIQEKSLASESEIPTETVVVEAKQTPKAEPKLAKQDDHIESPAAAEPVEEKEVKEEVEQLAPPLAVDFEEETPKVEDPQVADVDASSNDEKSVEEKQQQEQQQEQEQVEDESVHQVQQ
Experimental: The assay method is based upon the transfer of a radiolabelled mannose moiety from dolicholphosphomannose onto a threonine hydroxyl residue in a short peptide, as catalysed by the Candida albicans PMT-1 enzyme. Dolicholphospho-[^3H]-mannose is synthesised enzymatically from GDP-[^3H]-mannose and purified by chloroform: methanol extraction.
100000 Dpm of the generated substrate is incubated with 400 μg phosphatidylcholine, 25 μg of peptide (DYATAV) and 25 μg of Candida albicans membrane protein in a final volume of 50 μl in 100 mM Tris/1 mM MgCl2 buffer, pH 8.0. After 60 minutes at 25° C., the reaction is stopped with 50 μl of methanol. The unreacted radiolabel is removed by the addition of 150 μl of 0.4 g/ml octadecyl-functionalised silica (C18) in methanol. The C18 material is removed by centrifugation and the activity transferred to the peptide is counted in the supernatant.

[2] = tested on: Candida albicans (strain SC5314); test: G418 sensitivity assay; type: cell-based; conditions: G418 100 μg/ml, overnight at 37° C., OD600 nm, concentration giving 50% reduction in cell growth relative to culture with G418 alone
Experimental: This assay is based upon the observed increased sensitivity of the pmt1−/− Candida strain to Geneticin (G418) (6). 100 μl of a 0.1OD600 nm culture of Candida albicans (strain SC5314) is placed into a 96 well plate in the presence or absence of varying concentrations of test compound. The compounds are initially dissolved in DMSO and added to the cultures at a final DMSO concentration of 1%. G418 is added to a final concentration of 100 μg/ml. In the absence of PMT1 inhibition, this concentration of G418 has no effect on the proliferation of the organism. The cultures are grown overnight at 37° C. and cell density is then estimated by an OD600 nm measurement. The effect of the test compound is calculated as the concentration that gives a 50% reduction in cell growth relative to the culture with G418 alone.

| Compound | IC50 [1] [nM] | IC50 [2] [nM] | melting point [°C] |
| --- | --- | --- | --- |
| CCCCCN(CCCCC)C(=O)c1cc(/C=C2\SC(=S)N(CC(=O)O)C2=O)ccc1OCc1ccccc1 [Example 34, 5-[[[3-(N,N-Dipentylamino)carbonyl-4-(phenylmethoxy)]-phenyl]methylene]-4-oxo-2-thioxo-3-thiazolidineacetic acid] | 2500 | 1500 |  |
| C[C@@H](c1ccccc1)N(Cc1ccccc1)C(=O)c1cc(/C=C2\SC(=S)N(CC(=O)O)C2=O)ccc1OCc1ccccc1 [Example 35, 5-[[[3-((S)-N-Benzyl-N-alpha-methylbenzylamino)carbonyl-4-(phenyl-methoxy)]-phenyl]methylene]-4-oxo-2-thioxo-3-thiazolidineacetic acid] | 600 | 650 | 204 to 209 |
| CCCCCN(CCCCC)C(=O)c1cc(/C=C2\SC(=S)N(CC(=O)O)C2=O)ccc1OCc1ccc(F)cc1F [Example 49, 5-[[[3-(N,N-Dipentylamino)carbonyl-4-[(2,4-difluorophenyl)-methoxy]]phenyl]methylene]-4-oxo-2-thioxo-3-thiazolidineacetic acid] | 700 | 700 |  |
